Measurements: patent US8389724B2, “Crystalline salt forms of a 5,6,7,8-tetrahydro-1,2,4-triazolo[4,3-a]pyrazine derivative” (Corporacion Medichem, S.L., priority 2008, dated 2013)
Structures can show the parent of a compound that is named as a salt. Where two headings read alike, the source gives them in different places.

Tests used:
[1] = Stability studies of sitagliptin salts (10 months storage; HPLC, XRD, visual inspection); type: physicochemical; details: for Purity (HPLC) 10 months later / Aspect/Colour 10 months later / XRD analysis 10 months later: stored 10 months at room temperature, normal pressure, ambient atmosphere; for Aspect/Colour 10 months later: visual inspection; for Stability in terms of polymorphic form: after ten months of storage; for XRD analysis 10 months later: initial XRD Form I
Procedure: The XRD diffractograms were obtained using a RX SIEMENS D5000 diffractometer with a vertical goniometer, a copper anodic tube, and radiation CuKα, λ=1.54056.
Mobile phase A was a mixture of methanol and 5 mM dibasic sodium phosphate buffer, pH=7.0 (70:30, v/v). The buffer was prepared by dissolving 0.217 g of dibasic sodium phosphate in 300 mL of water and adjusting the pH of the solution to 7.0±0.1 with phosphoric acid, and filtered through a 0.22 μm nylon membrane under vacuum. Mobile phase B was methanol.
The following gradient was used: […]
The samples were analyzed after 10 months by HPLC, XRD, and visual inspection.

[2] = room temperature
[3] = listed as sitagliptin ethanedisulfonate Form I
[4] = listed as sitagliptin galactarate Form I

Purity (HPLC) 10 months later [1] [%]	Compound	Aspect/Colour 10 months later [1]	XRD analysis 10 months later [1]	further results
96.29	NC(CC(=O)N1CCn2c(nnc2C(F)(F)F)C1)Cc1cc(F)c(F)cc1F.O=C(O)C(O)C(O)C(O)C(O)CO [D-Gluconate, sitagliptin D-gluconate]	beige	–	–
98.64	sitagliptin (S)-pyroglutamate	off-white	–	–
98.90	sitagliptin acetate	off-white	–	–
95.95	sitagliptin oxalate	white	Form I	–
98.88	sitagliptin succinate	off-white	–	–

Further lines, the compound ahead of its results:

Compound	Purity (HPLC) 10 months later [1] [%]	Aspect/Colour 10 months later [1]	XRD analysis 10 months later [1]	further results
N[C@@H](CC(=O)N1CCn2c(nnc2C(F)(F)F)C1)Cc1cc(F)c(F)cc1F.O=S(=O)(O)CCS(=O)(=O)O [Ethane-disulfonate, sitagliptin ethanedisulfonate]	99.83	off-white	Form I	Stability in terms of polymorphic form [1]: highly stable; Purity (HPLC) 10 months later [1, 3]: higher than 99.8%; Descriptive term (solubility in water) [2]: Freely soluble; Descriptive term (solubility in water) [2, 3]: freely soluble
N[C@@H](CC(=O)N1CCn2c(nnc2C(F)(F)F)C1)Cc1cc(F)c(F)cc1F.O=C(O)[C@@H](O)[C@H](O)[C@H](O)[C@@H](O)C(=O)O [Galactarate, sitagliptin galactarate]	99.15	off-white	Form I	Stability in terms of polymorphic form [1]: highly stable; Purity (HPLC) 10 months later [1, 4]: higher than 99.1%; Descriptive term (solubility in water) [2]: Sparingly soluble; Descriptive term (solubility in water) [2, 4]: sparingly soluble
N[C@@H](CC(=O)N1CCn2c(nnc2C(F)(F)F)C1)Cc1cc(F)c(F)cc1F [Hydrobromide, sitagliptin hydrobromide]	98.92	off-white	Form I	–
N[C@@H](CC(=O)N1CCn2c(nnc2C(F)(F)F)C1)Cc1cc(F)c(F)cc1F.N[C@@H](CC(=O)O)C(=O)O [L-aspartate, sitagliptin L-aspartate]	97.14	white	–	–
N#CS.N[C@@H](CC(=O)N1CCn2c(nnc2C(F)(F)F)C1)Cc1cc(F)c(F)cc1F [Thiocyanate, sitagliptin thiocyanate]	99.22	light pink	Form I	Stability in terms of polymorphic form [1]: highly stable; Purity (HPLC) 10 months later ([1]; listed as sitagliptin thiocyanate Form I): higher than 99.2%
sitagliptin hemi-L-malate	98.91	–	–	–
